Values after ≈ are worked out from the molar mass of the structure shown. Where two headings read alike, the source gives them in different places.
Columns and labels:
[1] = test system: E. faecalis DSM 12956 (VRE, vanB positive); conditions: broth microdilution, cation-adjusted Mueller-Hinton Broth II, ~4 × 10⁵ CFU/mL, 37 °C, 24 h; mean of three independent biological replicates, each in technical triplicate
E. faecalis ATCC 29212 = conditions: broth microdilution, 37 °C, 24 h
E. coli K12 ΔtolC = conditions: broth microdilution, cation-adjusted Mueller-Hinton Broth II, 37 °C, 24 h, mean of three independent biological replicates, each in technical triplicate
E. coli K12 ΔacrB = conditions: broth microdilution, cation-adjusted Mueller-Hinton Broth II, ~4 × 10⁵ CFU/mL, 37 °C, 24 h, mean of three independent biological replicates, each in technical triplicate
[2] = test system: S. aureus Mu50 (MRSA/VISA); conditions: broth microdilution, cation-adjusted Mueller-Hinton Broth II, ~4 × 10⁵ CFU/mL, 37 °C, 24 h, mean of three independent biological replicates, each in technical triplicate
S. aureus HG001‐DRSA = conditions: daptomycin-resistant mutant of HG001; broth microdilution, cation-adjusted Mueller-Hinton Broth II, ~4 × 10⁵ CFU/mL, 37 °C, 24 h; mean of three independent biological replicates, each in technical triplicate
[3] = test system: E. coli WO153 (AB1157, recJ asmB1, ΔtolC); conditions: broth microdilution, cation-adjusted Mueller-Hinton Broth II, ~4 × 10⁵ CFU/mL, 37 °C, 24 h; mean of three independent biological replicates, each in technical triplicate
[4] = test system: S. aureus DSM 11822 (MDR); conditions: broth microdilution, cation-adjusted Mueller-Hinton Broth II, ~4 × 10⁵ CFU/mL, 37 °C, 24 h; mean of three independent biological replicates, each in technical triplicate
S. aureus N315 (MRSA) = conditions: broth microdilution, cation-adjusted Mueller-Hinton Broth II, ~4 × 10⁵ CFU/mL, 37 °C, 24 h; mean of three independent biological replicates, each in technical triplicate
[5] = test system: E. faecium DSM 17050 (VRE, vanA positive); conditions: broth microdilution, cation-adjusted Mueller-Hinton Broth II, ~4 × 10⁵ CFU/mL, 37 °C, 24 h; mean of three independent biological replicates, each in technical triplicate
[6] = test system: M. tuberculosis H37Ra ATCC 25177
[7] = test system: vancomycin‐resistant E. faecium clinical isolates with reduced susceptibility to daptomycin (n = 26); conditions: 24 h

Compound: CN[C@@]1(C)C[C@H](O[C@@H]2[C@H](O)C[C@H](O[C@H]3[C@H](C)O[C@@H](O[C@H]4[C@H](O[C@H]5[C@H](C)O[C@@H](Oc6ccc(C[C@@H](O)C(=O)N[C@H]7CNC(=O)NC[C@@H](C(=O)N[C@H](Cc8ccccc8)C(=O)O)NC(=O)[C@H]([C@H](C)c8c[nH]c9ccc(Cl)cc89)NC7=O)cc6)C[C@]5(C)N)O[C@@H](C)[C@H](O)[C@H]4O)C[C@]3(C)NC)O[C@H]2C)O[C@@H](C)[C@@H]1OC [Saarvienin A, saarvienin A]
- MIC, E. faecalis DSM 12956 (VRE, vanB positive) [1]: 1 µg/mL (≈ 0.662 µM)
- MIC, E. faecalis ATCC29212 (E. faecalis ATCC 29212; cation-adjusted Mueller-Hinton Broth II, ~4 × 10⁵ CFU/mL, mean of three independent biological replicates, each in technical triplicate): 2 µg/mL (≈ 1.32 µM)
- MIC, E. faecalis ATCC29212 (E. faecalis ATCC 29212; reference strain in Table S5, MHB II, daptomycin with 50 µg/mL Ca2+, mean of two independent experiments): 2 µg/mL (≈ 1.32 µM)
- MIC, E. coli K12 ΔtolC (tolC‐deficient) + PMBN (E. coli K12 ΔtolC; co‐incubated with sub‐lethal concentrations of polymyxin B nonapeptide (PMBN)): 32 µg/mL
- MIC, E. coli K12 ΔtolC (E. coli K12 ΔtolC; without PMBN, ~4 × 10⁵ CFU/mL): 64 µg/mL (≈ 42.4 µM)
- MIC, E. coli K12 ΔacrB (E. coli K12 ΔacrB): >64 µg/mL
- MIC, E. coli K12 ΔacrB (E. coli K12 ΔacrB; listed as 1): non‐susceptible
- MIC, S. aureus Mu50 (MRSA/VISA) [2]: 1 µg/mL (≈ 0.662 µM)
- MIC, S. aureus Mu50 (MRSA/VISA) ([2]; listed as 1): 0.5 µg/mL (≈ 0.331 µM)
- MIC, S. aureus HG001‐DRSA (S. aureus HG001‐DRSA): 1 µg/mL (≈ 0.662 µM)
- MIC, E. coli WO153 (AB1157, recJ asmB1, ΔtolC) [3]: 2 µg/mL (≈ 1.32 µM)
- MIC, S. aureus DSM 11822 (MDR) [4]: 0.5 µg/mL (≈ 0.331 µM)
- MIC, S. aureus N315 (MRSA) (S. aureus N315 (MRSA)): 0.5 µg/mL (≈ 0.331 µM)
- MIC, E. faecium DSM 17050 (VRE, vanA positive) [5]: 1 µg/mL (≈ 0.662 µM)
- MIC, M. tuberculosis H37Ra ATCC 25177 [6]: 32 µg/mL (≈ 21.2 µM)
- MIC50 [7]: 0.5 µg/mL (≈ 0.331 µM)
- MIC90 [7]: 0.5 µg/mL (≈ 0.331 µM)
- MIC Range [7]: 0.5 to 1 µg/mL
- MIC, Enterococcus faecium isolate 1 [7]: 1 µg/mL (≈ 0.662 µM)
- MIC, Enterococcus faecium isolate 2 [7]: 0.5 µg/mL (≈ 0.331 µM)
- MIC, Enterococcus faecium isolate 3 [7]: 0.5 µg/mL (≈ 0.331 µM)
- MIC, Enterococcus faecium isolate 4 [7]: 0.5 µg/mL (≈ 0.331 µM)
- MIC, Enterococcus faecium isolate 5 [7]: 0.5 µg/mL (≈ 0.331 µM)
- MIC, Enterococcus faecium isolate 6 [7]: 0.5 µg/mL (≈ 0.331 µM)
- MIC, Enterococcus faecium isolate 7 [7]: 0.5 µg/mL (≈ 0.331 µM)
- MIC, Enterococcus faecium isolate 8 [7]: 0.5 µg/mL (≈ 0.331 µM)
- MIC, Enterococcus faecium isolate 9 [7]: 0.5 µg/mL (≈ 0.331 µM)
- MIC, Enterococcus faecium isolate 10 [7]: 0.5 µg/mL (≈ 0.331 µM)
- MIC, Enterococcus faecium isolate 11 [7]: 0.5 µg/mL (≈ 0.331 µM)
- MIC, Enterococcus faecium isolate 12 [7]: 0.5 µg/mL (≈ 0.331 µM)
- MIC, Enterococcus faecium isolate 13 [7]: 0.5 µg/mL (≈ 0.331 µM)
- MIC, Enterococcus faecium isolate 14 [7]: 0.5 µg/mL (≈ 0.331 µM)
- MIC, Enterococcus faecium isolate 15 [7]: 0.5 µg/mL (≈ 0.331 µM)
- MIC, Enterococcus faecium isolate 16 [7]: 0.5 µg/mL (≈ 0.331 µM)
- MIC, Enterococcus faecium isolate 17 [7]: 0.5 µg/mL (≈ 0.331 µM)
- MIC, Enterococcus faecium isolate 18 [7]: 0.5 µg/mL (≈ 0.331 µM)
- MIC, Enterococcus faecium isolate 19 [7]: 0.5 µg/mL (≈ 0.331 µM)
- MIC, Enterococcus faecium isolate 20 [7]: 0.5 µg/mL (≈ 0.331 µM)
- MIC, Enterococcus faecium isolate 21 [7]: 0.5 µg/mL (≈ 0.331 µM)
- MIC, Enterococcus faecium isolate 22 [7]: 0.5 µg/mL (≈ 0.331 µM)
- MIC, Enterococcus faecium isolate 23 [7]: 0.5 µg/mL (≈ 0.331 µM)
- MIC, Enterococcus faecium isolate 24 [7]: 0.5 µg/mL (≈ 0.331 µM)
- MIC, Enterococcus faecium isolate 25 [7]: 0.5 µg/mL (≈ 0.331 µM)
- MIC, Enterococcus faecium isolate 26 [7]: 0.5 µg/mL (≈ 0.331 µM)

— PMC12171682, “Saarvienin A—A Novel Glycopeptide with Potent Activity against Drug‐Resistant Bacteria” (Angewandte Chemie (International Ed. in English), 2025)
